Non-standard residues stand in square brackets, D forms with d. No end group written: not given here. pS = N[C@@H](COP(=O)(O)O)C(=O)O
Legend:
Healthy donor PBMC = assay: Cultured IFNγ ELISpot on day 7, healthy donor PBMC; format: cell-based, human; settings: day 7, HLA-matched healthy donors
Protocol: Healthy donor PBMC responses to the CRC tumor-specific phosphopeptides were assessed using a cultured IFNγ ELISpot on day 7.
Generally, quantification of T cell IFNγ production in response to peptides was performed by ELISpot as per manufacturer's instructions. In brief, ELISpotPRO wells, pre-coated with IFNγ monoclonal antibody mAb 1-D1K (MabTech, product code: 3420-2APW-2), were washed four times with sterile PBS and blocked for 30 minutes with 200 μl 10% RPMI 1640 after which the blocking medium was removed.
For ELISpot analysis, PBMCs and CD8+ T cells were isolated fresh from healthy donors and patients. 1×10^6 PBMCs were isolated from both disease patients and healthy donors and re-suspended in AIM-V media (10% human AB serum) in a 96 well plate. Peptide or phosphopeptides were added individually at 10 μg/ml and placed at 37° C. in CO2 incubator for 7 days. Cells were then harvested, washed four times, and re-challenged with either phosphopeptides, peptides, anti CD3 (OKT3, 100 ng/ml, Mabtech) as per manufacturer's instructions. Individual cytokine-producing cells were identified as dark spots after a 15 minute reaction with 5-bromo-4-chloro-3-indolyl phosphate and NBT by means of an alkaline phosphatase conjugate substrate (Mabtech).

CRC cell line SW620 = assay: Killing of CRC cell line by phosphopeptide-specific T cell lines; format: cell-based, human; settings: T cell lines established against the phosphopeptide
Text: T cells lines were established against some of these key phosphopeptide targets.

[1] = test system: Tumor infiltrating lymphocytes (TILs); assay: TIL responses to phosphopeptides, multiplexed intracellular cytokine staining for IL-2, IFNγ, TNFα; format: cell-based, human
Protocol: Tumor infiltrating lymphocytes (“TILs”) from the same tumors, were extracted and expanded, and their responses to the phosphopeptides assessed using multiplexed intracellular cytokine staining for IL-2, IFNγ, and TNFα as depicted in FIG. 1A.
Tumor infiltrating lymphocytes (TILs) were also taken from the patient tumors at resection and expanded, using high-dose IL-2 (6000 IU/ml). TIL responses to the phosphopeptides were then tested using ICS. TILs were stimulated with phosphopeptide and cultured for 7 days before being re-stimulated in an intracellular cytokine staining assay assessing production of tumor necrosis factor alpha (TNFα), interferon gamma (IFNγ) and interleukin-2 (IL-2). The results are depicted in FIG. 6.

CD8+ T cells = assay: Immunization of HLA-A2 transgenic mice with phosphopeptide; format: in vivo, mouse; settings: immunization with the phosphopeptide
Protocol: In some embodiments, the immunogenicity of a target peptide is measured using transgenic mice expressing human MHC class I genes. For example, “ADD Tg mice” express an interspecies hybrid class I MHC gene, AAD, which contains the α-1 and α-2 domains of the human HLA-A2.1 gene and the α-3 transmembrane and cytoplasmic domains of the mouse H-2Dd gene, under the transcriptional control of the human HLA-A2.1 promoter. Immunodetection of the HLA-A2.1 recombinant transgene established that expression was at equivalent levels to endogenous mouse class I molecules. The mouse α-3 domain expression enhances the immune response in this system. Compared to unmodified HLA-A2.1, the chimeric HLA-A2.1/H2-Dd MHC Class I molecule mediates efficient positive selection of mouse T cells to provide a more complete T cell repertoire capable of recognizing peptides presented by HLA-A2.1 Class I molecules.
The peptide epitopes presented and recognized by mouse T cells in the context of the HLA-A2.1/H2-Dd class I molecule are the same as those presented in HLA-A2.1^+ humans. […]
In some embodiments, the immunogenicity of a modified phosphopeptide is determined by the degree of Interferon gamma (IFNγ) and/or tumor necrosis factor-alpha (TNF-α) production of T cells from ADD Tg mice immunized with the target peptide, e.g., by immunization with target peptide pulsed bone marrow derived dendritic cells. […]

xenograft tumor = assay: Xenograft tumor model system; format: in vivo
Text: (§1) IRS proteins are adapter proteins that link signaling from upstream activators to multiple downstream effectors to modulate normal growth, metabolism, survival and differentiation.

[2] = test system: human melanoma and breast tumors; assay: Recognition and killing of tumors in vitro by phosphopeptide-specific CD8+ T cells; format: cell-based
Text: as §1

memory T cells = assay: Phosphopeptide-specific memory T cell response in a patient; format: cell-based, human
Text: The phrase “capable of inducing a target peptide-specific memory T cell response in a patient” as used herein relates to eliciting a response from memory T cells (also referred to as “antigen-experienced T cell”), which are a subset of infection- and cancer-fighting T cells that have previously encountered and responded to their cognate antigen. Such T cells can recognize foreign invaders, such as bacteria or viruses, as well as cancer cells. Memory T cells have become “experienced” by having encountered antigen during a prior infection, having encountered cancer, or via previous vaccination. At a second encounter with the cognate antigen (e.g., by way of an initial inoculation with a target peptide of the presently disclosed subject matter), memory T cells can reproduce to mount a faster and stronger immune response than the first time the immune system responded to the invader (e.g., through the body's own consciously unperceived recognition of a target peptide being associated with diseased tissue). This behavior can be assayed in T lymphocyte proliferation assays, which can reveal exposure to specific antigens.
Tensin 3 (TNS3) plays a role in actin remodeling. It is involved in the dissociation of the integrin-tensin-actin complex. EGF activates TNS4 and down-regulates TNS3 which results in capping the tail of ITGB1. […]

LPIFSRLsI (LPIFSRL[pS]I; listed as Homo sapiens) [ZFP36L2]
Healthy donor PBMC responses, IFNγ ELISpot (Healthy donor PBMC): many responses were seen | Killing of SW620 by phosphopeptide-specific T cell line (CRC cell line SW620): specifically kill

RPRARsVDAL (RPRAR[pS]VDAL; listed as Homo sapiens) [LISCH7]
TIL response ([1]; TILs from the tumor from which the phosphopeptides were identified, equivalent to the EBV peptide response): ~2 % of TILs

RTHsLLLLL (RTH[pS]LLLLL; listed as Homo sapiens) [RNASE4]
Healthy donor PBMC responses, IFNγ ELISpot (Healthy donor PBMC): many responses were seen

RTMsEAALVRK (RTM[pS]EAALVRK; listed as Homo sapiens) [RASSF6]
TIL responses to phosphopeptide (IL-2, IFNγ, TNFα) ([1]; TILs extracted from tumors and expanded): responses were seen

RVAsPTSGV (RVA[pS]PTSGV; listed as Homo sapiens) [IRS2 (A2), HLA-A*0201 phosphopeptide from insulin receptor substrate 2]
Generation of phosphopeptide-specific CD8+ T cells (CD8+ T cells): can be generated | Tumor growth control by the T cells (xenograft tumor): controlled tumor growth | Killing of SW620 by phosphopeptide-specific T cell line (CRC cell line SW620): specifically kill | Recognition and killing of human melanoma and breast tumors by the T cells [2]: capable of recognizing and killing

VMIGsPKKV (VMIG[pS]PKKV; listed as Homo sapiens) [Tensin 3 phosphopeptide]
Phosphopeptide-specific memory T cell response (memory T cells): capable of inducing a strong phosphopeptide-specific memory T cell response

Source: patent publication US10682399B2, “Target peptides for colorectal cancer therapy and diagnostics” (University of Virginia Patent Foundation, priority 2012, dated 2020)
